Reference: US5506239A, “Carbostyril derivative and platelets aggregation inhibitory agent” (Otsuka Pharmaceutical Co., Ltd., priority 1991, dated 1996)

Columns and labels:
platelets [1] = assay: Platelets aggregation inhibitory activity (method of Born et al.), ADP-induced, human PRP (Pharmacological Test I); format: cell-based, man; conditions: 7.5 μM ADP, 37° C., read-out: IC50 ADP (50% platelets aggregation inhibition)
Method: (§1) The platelets aggregation inhibitory activity of each test compound was measured by the method of Born et al. [J. Physiol., London, 162, 67 (1962)], using Platelets Aggregation Tracer manufactured by Nikoh Bioscience Co., Ltd.
(§2) 9 volumes of a blood collected from person was mixed with 1 volume of a 3.8% aqueous sodium citrate solution. Part of the mixture was subjected to centrifugation at 1,100 rpm for 10 minutes to obtain a platelet rich plasma (PRP). The remainder of the mixture was also subjected to centrifugation at 3,000 rpm for 10 minutes to obtain a platelet poor plasma (PPP).
(§3) The number of platelets in the PRP was measured using Coulter Counter manufactured by Coulter Electronics Inc. Then, the PRP was diluted with the PPP so that the number of platelets in the dilution became 300,000, whereby a PRP solution was prepared.
(§4) 200 μl of this PRP solution and 2 ml of a solution containing a test compound at a given concentration were placed in an aggregation measurement cell and heated at 37° C. for 1 minute. Thereto was added 20 μl of adenosine diphosphate (ADP manufactured by Sigma Co.) or a collagen suspension (Collagen Reagent manufactured by Horm, Hormon-Chemie, Gmbh) to induce aggregation of platelets. The resulting mixture in the cell was measured for change of transmittance, after which a platelets aggregation curve was prepared. Incidentaly, the concentration of ADP or collagen was selected so that the final Concentration became 7.5 μM or 20 μg/ml.
(§5) Using the platelets aggregation curve, there was calculated a maximum aggregation rate (MAR) of platelets using the followoing formula: […]
(§6) wherein a represents a transmittance of the PRP obtained in the same manner; c represents a transmittance of the PPP obtained in the same manner; and b represents a transmittance at the maximum change, of the PRP solution containng the test compound and the aggregation inducer.
(§7) A MAR was also calculated as above, for the control containing no test compound.
(§8) Using the above two MARs, there were calculated platelets aggregation inhibitions (%) of each test compound at various concentrations using the following formula.
(§9) Inhibition=[1-(MAR of PRP solution containing test compound)/(MAR of PRP
(§10) solution containing no test compound)]×100
(§11) Using the above obtained platelets aggregation inhibitions (%) of each test compound at various concentrations, there was calculated a concentration (IC50) of each test compound for 50% platelets aggregation inhibition.

platelets [2] = assay: Platelets aggregation inhibitory activity (method of Born et al.), collagen-induced, human PRP (Pharmacological Test I); format: cell-based, man; conditions: 20 μg/ml collagen, 37° C., read-out: IC50 Collagen (50% platelets aggregation inhibition)
Method: as §1, §2, §3, §4, §5, §6, §7, §8, §9, §10, §11

platelets [3] = assay: Inhibition of collagen-induced platelets adhesion, washed platelets (Pharmacological Test III); format: cell-based, man; conditions: Platelet, 50 μg/ml collagen, human washed platelets, read-out: Inhibition (%) of collagen-induced platelets adherence
Method: A blood was collected from a healthy person with normal platelets function by addition of 0.1% disodium ethylenediaminetetraacetate (EDTA.4Na) and immediately subjected to separation of a platelet rich plasma (PRP). The PRP was washed twice with a Tyrode's buffer solution (50mM TRIS, 0.1% EDTA, Ca (-), Mg (-), 0.14% BSA added, pH=7.4), and suspended in the buffer solution so that the number of platelets in the resulting suspension became 300, 000/ml, to obtain a platelets suspension (EDTA-WP). 4 mg of Type I manufactured by Sigma Co., derived from a bovine skin was dissolved in 0.25 ml of acetic acid (83.5 mM); 8 ml of distilled water was added thereto; an ultrasonic wave was applied to the mixture at 4° C. for 2 minutes; 5 ml of the supernatant liquid was separated as a collagen solution. Each test compound was dissolved in dimethylformamide (DMF) so as to give a concentration of at least […] when possible, to prepare a test compound solution. The change in turbidity of platelets suspension was recorded as a change in transmitted light emitted from a glass cell containing the suspension, using a platelets aggregation tracer manufactured by Nikoh Bioscience K.K., generally used in the test of platelets aggregation function, whereby the adherence of platelets was measured. Incidentally, in recoridng the change in transmitted light, the sensitivity of the recorder was 5 times as high as that used generally. 200 μl of the EDTA-WP was placed in a glass cell exclusively used for the above platelets aggregation tester. Further, 1 μl of the test compound solution was added. The mixture was incubated at room temperature for 5 minutes. Then, the cell was set in the platelets aggregation tracer and was allowed to stand for 1 minute until the temperature became 37° C. Thereafter, about 20 μl (50 μg/ml) of the collagen solution was added, and the adherence of platelets were measured.
The inhibitions (%) of collagen-induced platelets adhesion by each test compound at various concentrations were calculated using the following formula.
Inhibition (%)=[1-(platelets adherence when test compound added)/
(platelets adherence when no test compound added)]×100

mongrel dogs = conditions: dog, in vivo, 300 mg/kg
Method: The heart rate-increasing activity and blood pressure hypotensive activity of each test compound were measured by the following method, using mongrel dogs each weighing 10-20 kg. That is, said dogs were anesthesized by intravenous injection of pentobarbital sodium, then fixed at the back, and tested under artificial respiration. The blood pressures of the dogs were measured by a blood pressure measuring transducer (P23×L manufactured by Gould Statham Instruments, Inc.) via cannula inserted into the femoral artery. The heart rates of the dogs were measured using the pulse wave of the blood pressure of each dog, via a tachometer. The signals of these testng apparatuses were recorded on a thermal pen-type recorder (Recti-Horize 8K manufactured by Nippon Denki-San-ei Sha).
Some of the compounds obtained in the above Examples were used as test compounds. […] Then, the heart rate of each dog was measured according to the above method and a maximum change in heart rate was calculated.

[4] = molecular target: T1, cyclic AMP phosphodiesterase (Homo sapiens, UniProt Q14432); assay: Cyclic AMP phosphodiesterase inhibitory activity, enzyme from human platelets (Pharmacological Test IV); format: biochemical, man; conditions: 0.4 μM cyclic AMP substrate, 30° C., 20 minutes, human platelet enzyme; read-out: IC50 (50% phosphodiesterase inhibition concentration)
T1 construct: the resulting supernatant liquid was used as a crude enzyme solution; from tissue; host or cells: human platelets (from platelet-rich plasma)
T1 sequence (Q14432 whole entry): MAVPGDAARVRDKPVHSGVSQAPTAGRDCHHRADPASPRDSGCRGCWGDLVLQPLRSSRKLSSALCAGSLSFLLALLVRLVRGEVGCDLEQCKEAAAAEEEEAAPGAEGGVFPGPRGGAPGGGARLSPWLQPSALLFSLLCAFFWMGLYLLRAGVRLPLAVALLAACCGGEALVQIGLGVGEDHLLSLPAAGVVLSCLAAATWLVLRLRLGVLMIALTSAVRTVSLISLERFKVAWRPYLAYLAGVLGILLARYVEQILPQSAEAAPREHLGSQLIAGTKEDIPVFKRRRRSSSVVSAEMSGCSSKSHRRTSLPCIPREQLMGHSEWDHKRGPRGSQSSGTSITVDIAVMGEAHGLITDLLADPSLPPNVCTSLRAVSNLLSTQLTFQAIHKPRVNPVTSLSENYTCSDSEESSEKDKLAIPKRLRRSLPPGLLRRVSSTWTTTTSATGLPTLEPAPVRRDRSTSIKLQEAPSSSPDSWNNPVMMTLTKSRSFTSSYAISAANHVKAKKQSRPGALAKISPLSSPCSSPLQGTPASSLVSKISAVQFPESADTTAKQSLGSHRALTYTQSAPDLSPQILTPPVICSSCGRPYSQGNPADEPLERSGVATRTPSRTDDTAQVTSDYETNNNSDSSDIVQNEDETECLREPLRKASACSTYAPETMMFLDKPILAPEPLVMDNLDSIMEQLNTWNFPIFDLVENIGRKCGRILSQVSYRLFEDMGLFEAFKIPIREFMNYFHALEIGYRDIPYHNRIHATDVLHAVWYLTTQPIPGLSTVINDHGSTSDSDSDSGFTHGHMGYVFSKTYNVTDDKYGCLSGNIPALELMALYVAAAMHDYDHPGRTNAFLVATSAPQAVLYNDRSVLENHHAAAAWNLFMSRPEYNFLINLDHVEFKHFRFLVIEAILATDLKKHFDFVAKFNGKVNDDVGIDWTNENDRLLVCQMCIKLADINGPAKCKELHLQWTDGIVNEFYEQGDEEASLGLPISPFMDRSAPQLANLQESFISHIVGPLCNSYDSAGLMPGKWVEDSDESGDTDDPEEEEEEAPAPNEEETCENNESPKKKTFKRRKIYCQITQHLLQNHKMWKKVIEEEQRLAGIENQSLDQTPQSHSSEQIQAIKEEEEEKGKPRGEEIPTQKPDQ

Structure (SMILES)	IC50 (platelets [1]; Homo sapiens, Platelet)	IC50 (platelets [2]; Homo sapiens, Platelet)	further results
O=C(NCC1CCCCC1)[C@@H]1C[C@@H](O)CN1CCCCOc1ccc2[nH]c(=O)ccc2c1 [Example 75]	9.1 µM	13 µM	inhibition at 300 µM (platelets [3]; dose 300 μM): 57%
O=c1ccc2cc(OCCCCN(CCN3CCC(O)CC3)CC3CCCCCCC3)ccc2[nH]1 [Example 16]			IC50 (platelets [1]): 6.3 µM; IC50 (platelets [2]): 7.4 µM; inhibition at 10 µM (platelets [3]): 48%
O=c1ccc2cc(OCCCCN(Cc3ccccc3)S(=O)(=O)CCN3CCC(O)CC3)ccc2[nH]1 [Example 119]	20 µM	20 µM	inhibition at 10 µM (platelets [3]): 40%
O=c1ccc2cc(OCCCCN(CCN3CCC(O)CC3)CC3CCCCC3)ccc2[nH]1 [Example 23]	8 µM	9.5 µM	Maximum change in heart rate (mongrel dogs): -2 beats/minute
O=C(CN(CCCCCOc1ccc2[nH]c(=O)ccc2c1)Cc1ccccc1)N1CCC(O)CC1 [Example 20]	2 µM	1.2 µM	inhibition at 10 µM (platelets [3]): 49%
O=c1ccc2ccc(OCCCCN(CCN3CCC(O)CC3)CC3CCCCCCC3)cc2[nH]1 [Example 134]			inhibition at 10 µM (platelets [3]): 45%; IC50 [4]: 0.49 µM
O=c1ccc2cc(OCCCCN(Cc3ccccc3)S(=O)(=O)CCn3cncn3)ccc2[nH]1 [Example 121]			inhibition at 30 µM (platelets [3]): 38%
O=c1ccc2cc(OCCCCCN(Cc3ccccc3)Cc3ccccn3)ccc2[nH]1 [Example 70]	40 µM	22 µM	IC50 [4]: < 0.1 µM
O=c1ccc2cc(OCCCCN(CCN3CCC(O)CC3)S(=O)(=O)CC3CCCCC3)ccc2[nH]1 [Example 130]	14 µM	13 µM	inhibition at 10 µM (platelets [3]): 43%
O=c1ccc2cc(OCCCCN(CCN3CCC(O)CC3)c3ccccc3)ccc2[nH]1 [Example 27]	6.7 µM	7.7 µM	Maximum change in heart rate (mongrel dogs): 7 beats/minute; inhibition at 30 µM (platelets [3]): 40%
O=C(O)CN(CCCCOc1ccc2[nH]c(=O)ccc2c1)CC1CCCCCCC1 [Example 64]	9 µM	10 µM	inhibition at 30 µM (platelets [3]): 31%
O=c1ccc2cc(OCCCS(=O)(=O)N(CC(O)CO)CC3CCCCC3)ccc2[nH]1 (stereo not drawn) [Example 109]	4.9 µM	6.3 µM	Maximum change in heart rate (mongrel dogs): 16 beats/minute
O=c1ccc2cc(OCCCCS(=O)(=O)N(CCN3CCC(O)CC3)Cc3ccccc3)ccc2[nH]1 [Example 89]	7.7 µM	3.8 µM	IC50 [4]: < 0.1 µM
CCN(CC)CCN(CCCCOc1ccc2[nH]c(=O)ccc2c1)CC1CCCCCC1 [Example 62]	18 µM	17 µM	Maximum change in heart rate (mongrel dogs): 2 beats/minute; inhibition at 100 µM (platelets [3]): 54%
O=c1ccc2cc(OCCCCN(CCN3CCC(O)CC3)CC3CCCCCCC3)ccc2[nH]1 [Example 15]	10 µM		IC50 (platelets [2]): 3.6 µM; Maximum change in heart rate (mongrel dogs): 1 beats/minute
COC(=O)[C@@H]1C[C@@H](O)CN1CCCCOc1ccc2[nH]c(=O)ccc2c1 [Example 73]	25 µM	6.9 µM	inhibition at 100 µM (platelets [3]): 36%

Structure (SMILES)	IC50 (platelets [1]; Homo sapiens, Platelet)	IC50 (platelets [2]; Homo sapiens, Platelet)	further results
CN(C(=S)CCCOc1ccc2[nH]c(=O)ccc2c1)C1CCCCC1 [Example 143]		2.3 µM	IC50 (platelets [1]): 3.8 µM; IC50 [4]: 1.44 µM
O=C(CN(CCCCOc1ccc2[nH]c(=O)ccc2c1)CC1CCCCCCC1)N1CCC(O)CC1 [Example 19]	6.1 µM	5.3 µM	Maximum change in heart rate (mongrel dogs): 24 beats/minute
O=c1ccc2cc(OCCCCN(Cc3ccccc3)S(=O)(=O)CCCn3cncn3)ccc2[nH]1 [Example 123]	17 µM	9.5 µM	inhibition at 10 µM (platelets [3]): 39%
O=c1ccc2cc(OCCCS(=O)(=O)N(CCN3CCC(O)CC3)C3CCCCC3)ccc2[nH]1 [Example 86]	8 µM	12 µM	inhibition at 10 µM (platelets [3]): 47%
O=c1ccc2cc(OCCCCS(=O)(=O)N(CCN3CCC(O)CC3)Cc3ccccc3Cl)ccc2[nH]1 [Example 93]	1.2 µM	2.6 µM	IC50 [4]: < 0.1 µM
O=c1ccc2cc(OCCCCS(=O)(=O)N(CCN3CCC(O)CC3)Cc3ccc(Cl)c(Cl)c3)ccc2[nH]1 [Example 95]	10 µM	7.1 µM	
CN(C)C(=O)[C@@H]1CCCN1CCN(CCCCCOc1ccc2[nH]c(=O)ccc2c1)Cc1ccccc1 [Example 53]	11 µM	13 µM	inhibition at 30 µM (platelets [3]): 35%
CC(=O)NCCN(CCCCOc1ccc2[nH]c(=O)ccc2c1)CC1CCCCCCC1 [Example 61]	4.9 µM	6.3 µM	Maximum change in heart rate (mongrel dogs): 17 beats/minute; inhibition at 30 µM (platelets [3]): 35%
CN(C1CCCCC1)S(=O)(=O)CCCOc1ccc2[nH]c(=O)ccc2c1 [Example 76]			inhibition at 30 µM (platelets [3]): 35%
O=c1ccc2cc(OCCCCS(=O)(=O)N(CCN3CCC(O)CC3)CC3CCCCCCC3)ccc2[nH]1 [Example 79]	1.3 µM	2.5 µM	IC50 [4]: < 0.1 µM
O=c1ccc2cc(OCCCCN(CCN3CCC(O)CC3)C3CCCCC3)ccc2[nH]1 [Example 26]	15 µM	14 µM	
CCN1C[C@H](O)C[C@H]1CN(CC1CCCCC1)S(=O)(=O)CCCCOc1ccc2[nH]c(=O)ccc2c1 [Example 106]	1.4 µM	0.9 µM	
O=c1ccc2cc(OCCCCN(CC(O)CO)CC3CCCCC3)ccc2[nH]1 (stereo not drawn) [Example 68]	15 µM	7.1 µM	Maximum change in heart rate (mongrel dogs): 30 beats/minute
O=c1ccc2cc(OCCCS(=O)(=O)N(CCN3CCC(O)CC3)Cc3ccccc3)ccc2[nH]1 [Example 83]	11 µM	4.3 µM	Maximum change in heart rate (mongrel dogs): 9 beats/minute
O=c1ccc2cc(OCCCNC(=S)N(CCN3CCC(O)CC3)CC3CCCCCCC3)ccc2[nH]1 [Example 132]	2.4 µM	1.8 µM	
